Source: US12410179B2, “Modulators of TNF alpha activity and uses thereof” (RayThera, Inc., priority 2023, dated 2025)
pIC50: −log10 of the molar value.

target: TNFα (Homo sapiens, UniProt P01375); test: HEK-Blue hTNFα reporter assay; assay type: cell-based; parameters: purchased R&D biosystem (R&D Systems) 210-TA-020/CF; conditions: HEK-Blue hTNFα reporter cells, SEAP readout; read-out: IC50 Range
Excerpt: Stimulation of HEK293 cells by TNFα leads to activation of the NF-κB pathway. The potency of compounds was examined in HEK-Blue™ hTNFα reporter cells (Invivogen, Cat #hkb-tnfdmyd). HEK-Blue™ TNFα cells were generated by stable transfection of HEK293 cell line with a SEAP reporter gene under the control of the […] minimal promoter fused to NF-κB binding sites. Stimulation of HEK-Blue™ TNFα cells with TNFα triggers the activation of the NF-κB-inducible promoter and the production of SEAP. Levels of SEAP in the supernatant can be easily determined using QUANTI-Blue™ Solution (Invivogen, cat #rep-qbs) by reading the OD at 620-655 nm.
HEK-Blue™ TNFα cells were cultured in DMEM supplemented with 10% FBS, 100p/mL penicillin, 100 μg/mL streptomycin, 100 μg/mL normocin, 1 μg/mL puromycin, and 100 μg/mL zeocin. The culture was maintained in culture incubator with 5% CO2 at 37° C. When used for assay, the cells were gently rinsed twice with pre-warmed phosphate buffered saline (PBS) and detached in presence of PBS by tapping the flask or by using a cell scraper. The cells were spun to remove PBS and resuspended in fresh, pre-warmed test medium (DMEM supplemented with 10% FBS, 100p/mL penicillin, and 100 μg/mL streptomycin). A serial dilution of work solution of tested compound was made in DMSO with 1000× of final concentration, and 40 nL of compound DMSO solution was transferred into 384-well plates (Corning 3764) by Echo, and incubated with 10 μL of recombinant hTNFα (R&D biosystem, Cat #210-TA-020/CF) for 1 h at 37° C. The compound/hTNFα mixture well received 30 μL HEK-Blue™ TNFα cell suspension at 10000 cells/well, and then incubated at 37° C. with 5% CO2 for 24 h. The final concentration of hTNFα is […]. After incubation, 5 μL of induced cell supernatant was transferred to a new 384-well plate well (Coring 3764) to mix with 45 μL of QUANTI-Blue Solution. After 1 h incubation at 37° C., the plate was read using a spectrophotometer at 620 nm.
The percentage of inhibition was calculated by the following formula: % inhibition=(positive control−Sample)/(positive control−negative control)*100 • Positive control: OD620 reading of cells with hTNFα stimulation. • Negative control: OD620 reading of cells without hTNFα stimulation. • Sample: OD620 reading of cells with compound at specific concentration and hTNFα stimulation
The % inhibition was plotted against compound concentration in logarithmic scale and the IC50 was rendered using 4-parameter nonlinear regression (GraphPad Prism).

Chain of TNFα (P01375 77-233 limits assumed): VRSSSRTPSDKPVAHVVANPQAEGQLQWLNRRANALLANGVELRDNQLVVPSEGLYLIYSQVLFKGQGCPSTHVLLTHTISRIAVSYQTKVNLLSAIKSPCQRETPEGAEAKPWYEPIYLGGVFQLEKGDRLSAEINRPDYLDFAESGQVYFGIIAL

Row | Compound | pIC50
1 | C[C@H](O)[C@@H](O)c1ncc(-c2ccn3nc4c(c3c2)[C@@H]2C[C@H]4N(C)C(=O)c3cccc(OC(F)F)c32)cn1 [Example 118] | > 7.60
2 | [2H]C([2H])([2H])N1C(=O)c2cccc(C#N)c2[C@H]2C[C@@H]1c1nn3cc(F)c(-c4cnc([C@]5(N)C[C@@](C)(C#N)C5)nc4)cc3c12 [Example 312] | > 7.60
3 | O=C1N[C@@H]2C[C@H](c3c(OC(F)F)cccc31)c1c2nn2ccc(C3=CCN(C(=O)O[C@H]4C[C@@H](O)C4)CC3)cc12 [Example 283] | > 7.60
4 | CN1C(=O)c2cccc(OC(F)F)c2[C@H]2C[C@@H]1c1nn3cc(F)c(-c4cnc([C@]5(N)C[C@@](C)(O)C5)c(F)c4)nc3c12 [Example 50] | > 7.60
5 | CN1C(=O)c2cccc(OC(F)F)c2[C@H]2C[C@@H]1c1nn3ccc(-c4ncc([C@H](O)C5COC5)cn4)cc3c12 [Example 108] | > 7.60
6 | [2H]C([2H])([2H])N1C(=O)c2cccc(OC(F)F)c2[C@H]2C[C@@H]1c1nn3cnc(-c4cnc([C@]5(N)C[C@@](C)(O)C5)nc4C)cc3c12 [Example 263] | > 7.60
7 | [2H]C([2H])([2H])N1C(=O)c2cccc(OC(F)F)c2[C@H]2C[C@@H]1c1nn3ccc(-c4cnc([C@]5(O)C[C@](C)(C#N)C5)nc4)nc3c12 [Example 272] | > 7.60
8 | [2H]C([2H])([2H])N1C(=O)c2cccc(OC(F)F)c2[C@H]2C[C@@H]1c1nn3ccc(-c4cnc([C@]5(N)C[C@@](C)(C#N)C5)nc4C)cc3c12 [Example 231] | > 7.60
9 | [2H]C([2H])([2H])N1C(=O)c2cccc(OC(F)F)c2[C@H]2C[C@@H]1c1nn3ccc(-c4cnc([C@]5(O)C[C@@](C)(N)C5)nc4)nc3c12 [Example 180] | 6.00 to 7.00
10 | CN1C(=O)c2cccc(OC(F)F)c2[C@H]2C[C@@H]1c1nn3ccc(-c4cnc([C@]5(O)C[C@@](C)(C(N)=O)C5)nc4)cc3c12 [Example 160] | > 7.60
11 | [2H]C([2H])([2H])N1C(=O)c2cccc(OC(F)F)c2[C@H]2C[C@@H]1c1nn3ccc(-c4cnc([C@]5(N)C[C@@](C)(C#N)C5)nc4)cc3c12 [Example 55] | > 7.60
12 | CN1C(=O)c2cccc(C#N)c2[C@H]2C[C@@H]1c1nn3ccc(-c4cnc(C5(N)CCC5)nc4)cc3c12 [Example 54] | > 7.60
13 | C[C@@H](O)[C@H](O)c1ncc(-c2ccn3nc4c(c3c2)[C@@H]2C[C@H]4N(C)C(=O)c3cccc(OC(F)F)c32)cn1 [Example 119] | > 7.60
14 | CN1C(=O)c2cccc(OC(F)F)c2[C@H]2C[C@@H]1c1nn3ccc(-c4cnc(OCP(C)(C)=O)nc4)cc3c12 [Example 67] | > 7.60
15 | CN1C(=O)c2cccc(OC(F)F)c2[C@H]2C[C@@H]1c1nn3ccc(-c4cnc(C5(O)CCC5)nc4)cc3c12 [Example 71] | > 7.60
16 | [2H]C([2H])([2H])N1C(=O)c2cccc(C#N)c2[C@H]2C[C@@H]1c1nn3ccc(-c4cnc(C5(N)CCC5)nc4)cc3c12 [Example 306] | > 7.60
17 | [2H]C([2H])([2H])N1C(=O)c2cccc(OC(F)F)c2[C@H]2C[C@@H]1c1nn3ccc(-c4cnc([C@]5(C#N)C[C@](C)(N)C5)c(F)c4)cc3c12 [Example 293] | > 7.60
18 | [2H]C([2H])([2H])N1C(=O)c2cccc(OC(F)F)c2[C@H]2C[C@@H]1c1nn3ccc(-c4cnc([C@]5(N)CCOC5)nc4)nc3c12 [Example 193] | > 7.60
19 | [2H]C([2H])([2H])N1C(=O)c2cccc(C#N)c2[C@H]2C[C@@H]1c1nn3ccc(-c4cnc([C@]5(N)C[C@@](C)(C#N)C5)nc4)nc3c12 [Example 301, (7R,14R)-12-(2-((1s,3S)-1-amino-3-cyano-3-methylcyclobutyl)pyrimidin-5-yl)-6-(methyl-d3)-5-oxo-5,6,7,14-tetrahydro-7,14-methanobenzo[c]pyrimido[1′,2′:1,5]pyrazolo[4,3-f]azocine-1-carbonitrile] | > 7.60

Row | Compound | pIC50
20 | C[C@]1(O)C[C@](N)(c2ncc(-c3ccn4nc5c(c4c3)[C@@H]3C[C@H]5N(C4CC4)C(=O)c4cccc(OC(F)F)c43)cn2)C1 [Example 329] | > 7.60
21 | CN1C(=O)c2cccc(OC(F)F)c2[C@H]2C[C@@H]1c1nn3cnc(-c4cnc([C@]5(N)C[C@@](C)(O)C5)c(F)c4)cc3c12 [Example 47] | > 7.60
22 | CN1C(=O)c2cccc(OC(F)F)c2[C@H]2C[C@@H]1c1nn3ccc(-c4cnc(C5(O)CC(C)(C#N)C5)nc4)nc3c12 (stereo partly drawn) [Example 4, (1R,3s)-3-(5-((7R,14S)-1-(difluoromethoxy)-6-methyl-5-oxo-5,6,7,14-tetrahydro-7,14-methanobenzo[c]pyrimido[1′,2′:1,5]pyrazolo[4,3-f]azocin-12-yl)pyrimidin-2-yl)-3-hydroxy-1-methylcyclobutane-1-carbonitrile] | > 7.60
23 | [2H]C([2H])([2H])N1C(=O)c2cccc(OC(F)F)c2[C@H]2C[C@@H]1c1nn3ccc(-c4ccc(P(C)(C)=O)nc4)cc3c12 [Example 31] | > 7.60
24 | [2H]C([2H])([2H])N1C(=O)c2cccc(C3CC3)c2[C@H]2C[C@@H]1c1nn3ccc(-c4cnc(C5(N)CCC5)nc4)cc3c12 [Example 313] | > 7.60
25 | CN1C(=O)c2cccc(OC(F)F)c2[C@H]2C[C@@H]1c1nn3ccc(-c4cnc([C@](C)(O)CC#N)nc4)cc3c12 [Example 75] | > 7.60
26 | O=C1N[C@@H]2C[C@H](c3c(OC(F)F)cccc31)c1c2nn2ccc(-c3cnc(C4(O)CC(F)(F)C4)nc3)cc12 [Example 150] | > 7.60
27 | [2H]C([2H])([2H])N1C(=O)c2cccc(OC(F)F)c2[C@H]2C[C@@H]1c1nn3cc(C)c(-c4cnc(C(C)(C)N)nc4)cc3c12 [Example 300] | > 7.60
28 | CN1C(=O)c2cccc(OC(F)F)c2C2CC1c1nn3ccc(-c4cnc(C5(N)CCC5)nc4)cc3c12 (centres unmarked) [Example 14, 12-(2-(1-aminocyclobutyl)pyrimidin-5-yl)-1-(difluoromethoxy)-6-methyl-6,7-dihydro-7,14-methanobenzo[c]pyrido[1′,2′:1,5]pyrazolo[4,3-f]azocin-5 (14H)-one] | > 7.60
29 | CN1C(=O)c2cccc(OC(F)F)c2[C@H]2C[C@@H]1c1nn3ccc(-c4cnc([C@@](C)(O)C(F)F)nc4)cc3c12 [Example 73] | > 7.60
30 | C[C@]1(C#N)C[C@](N)(c2ncc(-c3nc4c5c(nn4cc3F)[C@H]3C[C@@H]5c4c(OC(F)F)cccc4C(=O)N3)cn2)C1 [Example 235] | > 7.60
31 | [2H]C([2H])([2H])N1C(=O)c2cccc(OC(F)F)c2[C@H]2C[C@@H]1c1nn3cc(F)c(-c4ccc(P(C)(C)=O)nc4)cc3c12 [Example 113] | > 7.60
32 | NC1(c2ccc(-c3ccn4nc5c(c4n3)[C@@H]3C[C@H]5NC(=O)c4cccc(OC(F)F)c43)cn2)CCC1 [Example 186] | 7.00 to 7.60
33 | CN1C(=O)c2cccc(C(F)F)c2[C@H]2C[C@@H]1c1nn3ccc(-c4cnc(C5(N)CCC5)nc4)cc3c12 [Example 299] | > 7.60
34 | [2H]C([2H])([2H])N1C(=O)c2cccc(OC(F)F)c2[C@H]2C[C@@H]1c1nn3cc(F)c(-c4cnc([C@]5(N)C[C@@](C)(CO)C5)c(F)c4)nc3c12 [Example 268] | > 7.60
35 | CN1C(=O)c2cccc(OC(F)F)c2[C@H]2C[C@@H]1c1nn3ccc(-c4cnc([C@@]5(O)CC[C@H](O)C5)nc4)cc3c12 [Example 102] | > 7.60
36 | CN1C(=O)c2cccc(OC(F)F)c2[C@H]2C[C@@H]1c1nn3ccc(-c4ccc(S(=N)(=O)C5CC5)nc4)cc3c12 (some centres unmarked) [Example 68] | > 7.60
37 | [2H]C([2H])([2H])N1C(=O)c2cccc(OC(F)F)c2[C@H]2C[C@@H]1c1nn3ccc(-c4cnc([C@]5(N)C[C@@](C)(O)C5)nc4)cc3c12 [Example 222] | > 7.60
38 | CN1C(=O)c2cccc(OC(F)F)c2[C@H]2C[C@@H]1c1nn3ccc(-c4ncc([C@]5(O)C[C@@](C)(O)C5)cn4)cc3c12 [Example 142] | > 7.60

same assay, conditions: HEK-Blue hTNFα reporter cells; read-out: TNFα reporter, Emax

Row | Compound | Emax [%]
39 | CN1C(=O)c2cccc(OC(F)F)c2[C@H]2C[C@@H]1c1nc3ccc(-c4cnc([C@]5(O)C[C@@](C)(O)C5)nc4)cc3n12 [Comp. Ex #6, reference compound] | 82
40 | CN1C(=O)c2cccc(OC(F)F)c2[C@H]2C[C@@H]1c1nc3ccc(-c4cnc([C@]5(N)C[C@@](C)(C#N)C5)nc4)cc3n12 [Comp. Ex #5, reference compound] | 83
41 | CN1C(=O)c2cccc(OC(F)F)c2[C@H]2C[C@@H]1c1nn3cnc(-c4cnc([C@]5(N)C[C@@](C)(O)C5)c(F)c4)cc3c12 [Example 47] | 94

same assay, conditions: HEK-Blue hTNFα reporter cells; read-out: TNFα reporter, IC50

Row | Compound | pIC50
42 | CN1C(=O)c2cccc(OC(F)F)c2[C@H]2C[C@@H]1c1nc3ccc(-c4cnc([C@]5(O)C[C@@](C)(O)C5)nc4)cc3n12 [Comp. Ex #6, reference compound] | 8.28
43 | CN1C(=O)c2cccc(OC(F)F)c2[C@H]2C[C@@H]1c1nc3ccc(-c4cnc([C@]5(N)C[C@@](C)(C#N)C5)nc4)cc3n12 [Comp. Ex #5, reference compound] | 7.79
44 | CN1C(=O)c2cccc(OC(F)F)c2[C@H]2C[C@@H]1c1nn3cnc(-c4cnc([C@]5(N)C[C@@](C)(O)C5)c(F)c4)cc3c12 [Example 47] | 8.44
